Laboratory results reported in PubChem BioAssay AID488890 (Southern Research Specialized Biocontainment Screening …, 2010).
Inconclusive results are not listed. Active and inactive are the calls of the source. The rule behind the calls is not given here.

Tested on: Mycobacterium tuberculosis non-replicating, growth inhibition
Assay: growth inhibition of non-replicating M. tuberculosis (AID 488890)

Row | SMILES | IC50
1 | CCc1ccc(NC(=O)COc2ccc3c(c2)OCO3)cc1 | 5.33 µM
2 | CCCn1c(=O)c(C(=O)N/N=C/c2ccccc2F)c(O)c2ccccc21 | 13.3 µM (inactive)
3 | Cc1c(Cl)cccc1-c1ccc(CNCc2ccccn2)o1 | 4.58 µM
4 | O=c1[nH]c(-c2ccccn2)nc2ccccc12 | 9.66 µM
5 | CN(C)S(=O)(=O)Oc1ccc(C(=O)Nc2cccc(C(F)(F)F)c2)cc1 | 13.5 µM (inactive)
6 | Nc1ncnc(Oc2cccc3cccnc23)c1[N+](=O)[O-] | 4.36 µM
7 | CCC(C)c1ccc(OCCn2ccnc2)cc1 (stereo unspecified) | 10.4 µM (inactive)
8 | CN(C)c1ccc(/C=C2\N=C(C(C)(C)C)OC2=O)cc1 | 9.11 µM
9 | O=C(c1ccc(Cl)cc1)c1nnc(-c2ccncc2)o1 | 3.32 µM
10 | O=C(Nc1ccccc1F)c1ccc(CSc2ccccc2)o1 | 4.4 µM
11 | CCOc1ccc(-c2nc3ccccc3c(=O)o2)cc1 | 6.27 µM
12 | COc1ccc(C(O)CNc2ccc(C)cc2)cc1 (stereo unspecified) | 43.2 µM (inactive)
13 | Cc1nc2ccccc2n1/N=C/c1ccc([N+](=O)[O-])s1 | 0.32 µM
14 | CCc1c(C)c2ccc(OCC(=O)OC)cc2oc1=O | 9.03 µM
15 | CC(/C=C/c1ccco1)=N/NC(=O)c1ccc(C)nc1 | 13.4 µM (inactive)
16 | CC(C)(C)NC(=O)c1ccc(NC(=O)c2ccccc2-c2ccccc2C(=O)O)cc1 | 3.71 µM
17 | CCCCOc1ccc(NC(=O)CN2CCN(Cc3ccccc3)CC2)cc1 | 25.6 µM (inactive)
18 | Cc1ccc(S(=O)(=O)N2CCC(C(=O)OCc3ccccc3)CC2)cc1C | 9.82 µM
19 | CC1(C)CC(=O)c2cc(C(=O)NNc3ccccc3)c(=O)n(-c3ccccc3)c2C1 | 7.49 µM
20 | C=CCc1ccc(OCC(O)CN2CCN(Cc3ccc(Cl)cc3)CC2)c(OC)c1 (stereo unspecified) | 15.7 µM (inactive)
21 | Fc1ccc(N2CCN(Cc3nnc(-c4ccccc4)o3)CC2)cc1 | 18.9 µM (inactive)
22 | CN(C)CCCn1c(=O)n(CCc2ccccc2)c(=O)c2c3c(sc21)CCCCC3 | 16.9 µM (inactive)
23 | O=C(Nc1nnc(-c2ccc(Cl)cc2)o1)c1cccc(N2C(=O)CCC2=O)c1 | 22.3 µM (inactive)
24 | CCOC(=O)c1ccc(COC(=O)c2cc3ccccc3oc2=O)o1 | 12.1 µM (inactive)

Row | SMILES | IC50
25 | CN=C1S/C(=C\c2ccc(OCC(=O)OC)c(OC)c2)C(=O)N1C | 16.5 µM (inactive)
26 | O=C(Nc1ccccc1F)c1ccc(Br)o1 | 13.4 µM (inactive)
27 | CCOC(=O)COc1ccc2c(=O)cc(-c3ccccc3)oc2c1 | 0.83 µM
28 | OC(COc1ccc2ccccc2c1Br)Cn1ccnc1 (stereo unspecified) | 33 µM (inactive)
29 | COc1cccc2c1C(CO)N1C(C#N)C3CC(C(=O)O)C(C1C2)N3C (stereo unspecified) | 2.09 µM
30 | NC(=O)N/N=C/c1ccccc1OC(=O)c1cc2ccccc2oc1=O | 3.77 µM
31 | CCOC(=O)COc1ccc2ccccc2c1/C=C/[N+](=O)[O-] | 2.32 µM
32 | CCOC(=O)Cc1c(C)nc2c(-c3ccc(Cl)cc3)c[nH]n2c1=O | 3.93 µM
33 | Cc1ccc(C(=O)OCC(=O)N2CCCCCC2)c(O)c1 | 8.95 µM
34 | c1ccc(-c2nc3ccccn3c2NC2CCCC2)nc1 | 24.9 µM (inactive)
35 | O=C1Nc2cc(C(=O)NCCCN3CCOCC3)ccc2S/C1=C/c1cccc(Cl)c1 | 20.8 µM (inactive)
36 | Cc1cccc(NC(=O)COC(=O)CCc2c[nH]c3ccccc23)c1 | 1.94 µM
37 | Cc1csc(NC(=O)c2cc([N+](=O)[O-])cc([N+](=O)[O-])c2)n1 | 7.76 µM
38 | COc1ccc(OCCOC(=O)CCS(=O)(=O)c2ccc(C)cc2)cc1 | 24.1 µM (inactive)
39 | CCOc1ccc(NC(=O)COc2ccc3c(c2)OCO3)cc1 | 10.6 µM (inactive)
40 | CCCCN1CCC(O)(c2ccccc2)C(C(=O)c2ccccc2)C1 (stereo unspecified) | 4.86 µM
41 | O=C(N/N=C/C=C/c1ccco1)c1ccncc1 | 1.19 µM
42 | CCOc1ccc2nc(NC(=O)c3cnc(C)cn3)sc2c1 | 4.32 µM
43 | CCOC(=O)CCSc1n[nH]c(=S)s1 | 11.7 µM (inactive)
44 | O=C(CN1CCN(c2ccccc2)CC1)Nc1nnc(-c2ccccc2)s1 | 9.53 µM
45 | CCc1ccc(C2=C/C(=C/c3cccnc3)C(=O)O2)cc1 | 21.2 µM (inactive)
46 | O=C(N/N=C/c1ccc(Br)s1)c1ccncc1 | 0.47 µM
47 | Cc1ccc2cc3c(nc2c1)OCC3 | 6.8 µM
48 | O=c1oc2ccccc2nc1/C=C(\O)c1ccc(Br)cc1 | 6.03 µM

Row | SMILES | IC50
49 | CC(C)(C)NC(=O)C(=O)NNC(=O)c1ccc(C(C)(C)C)cc1 | 5.82 µM
50 | O=C(Nc1nc2ccccc2n1CCN1CCCC1)C1CCCCC1 | 17.8 µM (inactive)
51 | OC(CNCCc1ccc(C(F)(F)F)cc1)COc1ccc2ccccc2c1 (stereo unspecified) | 8.28 µM
52 | CC(C)c1ccc(/C=N/NC(=O)c2ccccn2)cc1 | 12.9 µM (inactive)
53 | O=C(NNc1c(F)c(F)cc(F)c1F)c1cc2ccccc2oc1=O | 27.5 µM (inactive)
54 | Cc1ccc(C(=O)CCNc2ccc(F)c(Cl)c2)o1 | 11 µM (inactive)
55 | CC(OC(=O)c1ccc([N+](=O)[O-])s1)C(=O)NC1CCCCC1C (stereo unspecified) | 0.24 µM
56 | CCCCC1CCC(C(=O)Nc2ccc(S(=O)(=O)Nc3nccs3)cc2)CC1 (stereo unspecified) | 7.7 µM
57 | Cc1onc(-c2ccccc2)c1C(=O)N/N=C/c1ccc([N+](=O)[O-])s1 | 8.09 µM
58 | O=C(NCCc1c[nH]c2ccccc12)c1cc2ccccc2oc1=O | 4.78 µM
59 | CC(=O)c1c(C)n(C)c2ccc(OC(=O)c3ccco3)cc12 | 10.3 µM (inactive)
60 | COc1cccc(C(=O)OCn2nnc3ccccc3c2=O)c1OC | 19 µM (inactive)
61 | Cc1ccc(Sc2ccc(C=C3C(=O)N(C)C(=O)N(C)C3=O)o2)cc1 | 3.04 µM
62 | O=c1c2cc(Cl)ccc2nc(-c2ccc(Cl)c(Cl)c2)n1O | < 0.1 µM
63 | Clc1cccc2c1Sc1ccccc1CC2N1CCNCC1 (stereo unspecified) | 5.98 µM
64 | Cc1ccc(SCCC(=O)OCC(=O)NCC2CCCCC2)cc1 | 16.6 µM (inactive)
65 | CC1(C)CC(=O)C(C2NCCc3ccccc32)=C(O)C1 (stereo unspecified) | 30.8 µM (inactive)
66 | O=C(N/N=C/c1ccc[nH]1)c1cccnc1 | 26.7 µM (inactive)
67 | O=C(N/N=C/C=C/c1cccc([N+](=O)[O-])c1)c1ccncc1 | 24.8 µM (inactive)
68 | Cc1ccccc1NC(=O)c1ccc([N+](=O)[O-])o1 | 7.05 µM
69 | CCOC(=O)CNC(=O)N1c2ccccc2Sc2ccccc21 | 4.81 µM
70 | COc1ccc(C(=O)CC(=O)C(=O)NCCc2cccc(C)c2)cc1 | 4.42 µM
71 | Cc1ccc(C(=O)N2N=C(CC(C)C)CC2(O)C(F)(F)F)o1 (stereo unspecified) | 6.3 µM
72 | Cc1nnc(C)n1/N=C/c1cc(Br)cc(Br)c1O | 11.3 µM (inactive)

Row | SMILES | IC50
73 | CC1=C(C)/C(=N\OS(=O)(=O)c2ccccc2)C=CC1=O | 1.47 µM
74 | COc1ccccc1C1=Nn2c(nnc2C2CCCCC2)SC1 | 13.9 µM (inactive)
75 | Cc1ccccc1-n1c(C)cc(/C=N/NC(=O)c2ccncc2)c1C | 0.65 µM
76 | CC(C)(C)OC(=O)NCCc1nnc(S(=O)(=O)Cc2ccc(Cl)cc2Cl)o1 | 4.85 µM
77 | O=C(Nc1ccc(Cl)cn1)C1COc2ccccc2O1 (stereo unspecified) | 3.32 µM
78 | CC(=O)Oc1ccc(/C=C2\N=C(C3CCCCC3)OC2=O)cc1 | 9.08 µM
79 | O=C(OCC(=O)N1CCCc2ccccc21)c1ccc(S(=O)(=O)C(F)F)cc1 | 20.5 µM (inactive)
80 | O=C(NCc1nnc(SC/C=C/c2ccccc2)o1)c1ccco1 | 4.25 µM
81 | CCc1ccc(C(=O)COC(=O)c2ccc(Cl)nc2)cc1 | 17.3 µM (inactive)
82 | c1ccc(-c2nnc(SCc3nnc(-c4cccs4)o3)o2)cc1 | 5.95 µM
83 | CN(C)CCN1C(=O)c2oc3ccccc3c(=O)c2C1c1cccc(Br)c1 (stereo unspecified) | 23.1 µM (inactive)
84 | O=C(COC(=O)c1cc(Br)ccc1Cl)NC1CCCC1 | 4.84 µM
85 | O=C(Nc1c(F)cc(F)cc1Br)c1cc(-c2ccccc2)on1 | 6.29 µM
86 | O=C(N/N=C/c1ccc(OC(=O)c2ccco2)cc1)c1ccccn1 | 6.05 µM
87 | CN(CC(=O)Nc1ccc(Cl)cc1)C1CCCCC1 | < 0.1 µM
88 | CCOC(=O)COc1cc([N+](=O)[O-])cc2cccnc12 | 25.5 µM (inactive)
89 | O=C(Oc1ccc(F)cc1)c1ccc2c(=O)n3c(nc2c1)CCC3 | 2.49 µM
90 | CCCNC(=O)NC(=O)COc1ccc(-c2ccc(C#N)cc2)cc1 | 2.54 µM
91 | O=c1c(O)c(-c2cccs2)oc2ccc(Cl)cc12 | 1.08 µM
92 | O=C(N[C@@H]1C[C@H]2CC[C@@H]1C2)c1ccco1 | 15.1 µM (inactive)
93 | O=[N+]([O-])c1ccc(CNc2cccc(Cl)c2)s1 | 43.7 µM (inactive)
94 | CC1CCCC(NCC(O)COC(c2ccc(F)cc2)c2ccc(F)cc2)C1C (stereo unspecified) | 5.8 µM
95 | COc1ccccc1/C=N\Nc1cc(C)nc(-n2nc(C)cc2C)n1 | 1.77 µM
96 | CN(C)CC/C=C1\c2ccccc2Sc2cc(F)c(Cl)cc21 | 10.5 µM (inactive)

Row | SMILES | IC50
97 | Cc1ccc(CNC(=O)c2cnccn2)cc1 | 1.36 µM
98 | O=C(COC(=O)Cc1ccc(Br)cc1)Nc1ccc(N2CCOCC2)cc1 | 39.1 µM (inactive)
99 | C#CCSc1nnc(-c2ccc([N+](=O)[O-])cc2)o1 | < 0.1 µM
100 | Cc1[nH]c2ccccc2c1C(=O)COC(=O)c1ccc([N+](=O)[O-])s1 | 0.65 µM
101 | CC1CCN(C(=O)c2ccc(-c3ccccc3Cl)o2)CC1 | 5.32 µM
102 | Cc1ccc(C)c(-c2nnc(NC(=O)C3=COCCO3)o2)c1 | 23.1 µM (inactive)
103 | Cc1nc2c(=O)n(C)c(=O)n(C)c2nc1Cl | 10.3 µM (inactive)
104 | O=C(Nc1nc2ccc(F)cc2s1)c1ccccn1 | 0.11 µM
105 | COc1cccc(CNCCc2c[nH]c3ccccc23)c1OCc1ccc(F)cc1 | 16.9 µM (inactive)
106 | COc1ccc(C(=O)N/N=C(\C)c2ccccn2)cc1OC | 4.92 µM
107 | COc1ccc(Cl)cc1N=Cc1c(O)c2ccccc2oc1=O | 44.3 µM (inactive)
108 | CCOC(=O)Cc1c(C)nc2c(-c3cccc(Br)c3)c[nH]n2c1=O | 4.13 µM
109 | COc1ccc(OC)c(NC(=O)C(=O)NNC(=O)C23CC4CC(CC(C4)C2)C3)c1 | 5.4 µM
110 | CCCCOc1ccc(-c2nnn(C(C)C(=O)OCC)n2)cc1 (stereo unspecified) | 1.57 µM
111 | CC(C)(C)C(=O)/C=C/Nc1ccccc1O | 4.66 µM
112 | CCOc1cccc2cc(C(=O)NCc3ccccc3)c(=N)oc12 | 10.2 µM (inactive)
113 | O=[N+]([O-])c1ccc(CN2CCN(c3ccccc3Cl)CC2)o1 | 3.83 µM
114 | COc1cc(CNC2CCCC2)cc(Cl)c1OCc1ccccc1Cl | 9.58 µM
115 | CN1c2ccsc2/C(=N/Nc2ccccc2)CS1(=O)=O | 0.29 µM
116 | CC/C(=C\c1oc2cc3ccccc3cc2[n+]1CC)Nc1ccccc1 | 3.14 µM
